Here are results for four compounds from ChEMBL document CHEMBL1123630, “Stereospecificity in allergic contact dermatitis to simple substituted methylene lactone derivatives” (1987).

Each structure is given as a SMILES string.

Common to all, as to type: functional
Test [1] is filed under the species Cavia porcellus. Briefly: Evaluated for the open epicutaneous test and no. of animals showing erythema covering part (0.5) by (-)4,5-Dimethyl-3-methylene-dihydro-furan-2-one sensitization in guinea pigs.
For test [2], the species on record is Cavia porcellus. Briefly: Number of positive animals showing sensitization to (+)4,5-Dimethyl-3-methylene-dihydro-furan-2-one in 8 guinea pigs was determined by open epicutaneous test for the compound.
For test [3], the species on record is Cavia porcellus. Briefly: Evaluated for the open epicutaneous test and no. of animals showing erythema covering the whole (1) by (-)4,5-Dimethyl-3-methylene-dihydro-furan-2-one sensitization in guinea pigs.
The species entered for test [4] is Cavia porcellus. Briefly: Mean reaction by (+)4,5-Dimethyl-3-methylene-dihydro-furan-2-one sensitization in guinea pigs was determined by open epicutaneous test fo the compound.
Test [5] is filed under the species Cavia porcellus. Briefly: Mean reaction by (-)4,5-Dimethyl-3-methylene-dihydro-furan-2-one sensitization in guinea pigs was determined by open epicutaneous test fo the compound.
The species entered for test [6] is Cavia porcellus. The experiment in a line: Number of positive animals showing sensitization to (-)4,5-Dimethyl-3-methylene-dihydro-furan-2-one in 8 guinea pigs was determined by open epicutaneous test for the compound.
The species entered for test [7] is Cavia porcellus. The experiment in a line: Evaluated for the open epicutaneous test and no. of animals showing erythema covering part (0.5) by (+)4,5-Dimethyl-3-methylene-dihydro-furan-2-one sensitization in guinea pigs.
Test [8] is filed under the species Cavia porcellus. Briefly: Evaluated for the open epicutaneous test and no. of animals showing erythema and swelling(2) by (+)4,5-Dimethyl-3-methylene-dihydro-furan-2-one sensitization in guinea pigs.
For test [9], the species on record is Cavia porcellus. The experiment in a line: Evaluated for the open epicutaneous test and no. of animals showing erythema covering the whole (1) by (+)4,5-Dimethyl-3-methylene-dihydro-furan-2-one sensitization in guinea pigs.
Test [10] is filed under the species Cavia porcellus. Briefly: Evaluated for the open epicutaneous test and no. of animals showing no reaction (0) by (+)4,5-Dimethyl-3-methylene-dihydro-furan-2-one sensitization in guinea pigs.
The species entered for test [11] is Cavia porcellus. Briefly: Evaluated for the open epicutaneous test and no. of animals showing erythema and swelling(2) by (-)4,5-Dimethyl-3-methylene-dihydro-furan-2-one sensitization in guinea pigs.
Test [12] is filed under the species Cavia porcellus. Briefly: Evaluated for the open epicutaneous test and no. of animals showing no reaction (0) by (-)4,5-Dimethyl-3-methylene-dihydro-furan-2-one sensitization in guinea pigs.
The species named for test [13] is Cavia porcellus. Briefly: Number of positive animals showing sensitization to (-)4-Methyl-3-methylene-dihydro-furan-2-one in 7 guinea pigs was determined by open epicutaneous test for the compound.
The species entered for test [14] is Cavia porcellus. Briefly: Evaluated for the open epicutaneous test and no. of animals showing erythema covering part (0.5) by (+)4-Methyl-3-methylene-dihydro-furan-2-one sensitization in guinea pigs.
Test [15] is filed under the species Cavia porcellus. Briefly: Evaluated for the open epicutaneous test and no. of animals showing erythema and swelling(2) by (+)4-Methyl-3-methylene-dihydro-furan-2-one sensitization in guinea pigs.
Test [16] is filed under the species Cavia porcellus. The experiment in a line: Evaluated for the open epicutaneous test and no. of animals showing erythema covering the whole (1) by (+)4-Methyl-3-methylene-dihydro-furan-2-one sensitization in guinea pigs.
The species named for test [17] is Cavia porcellus. Briefly: Evaluated for the open epicutaneous test and no. of animals showing no reaction (0) by (-)4-Methyl-3-methylene-dihydro-furan-2-one sensitization in guinea pigs.
The species entered for test [18] is Cavia porcellus. The experiment in a line: Evaluated for the open epicutaneous test and no. of animals showing erythema and swelling(2) by (-)4-Methyl-3-methylene-dihydro-furan-2-one sensitization in guinea pigs.
The species named for test [19] is Cavia porcellus. The experiment in a line: Evaluated for the open epicutaneous test and no. of animals showing erythema covering part (0.5) by (-)4-Methyl-3-methylene-dihydro-furan-2-one sensitization in guinea pigs.
The species named for test [20] is Cavia porcellus. Briefly: Mean reaction by (+)4-Methyl-3-methylene-dihydro-furan-2-one sensitization in guinea pigs was determined by open epicutaneous test fo the compound.
The species entered for test [21] is Cavia porcellus. The experiment in a line: Number of positive animals showing sensitization to (+)4-Methyl-3-methylene-dihydro-furan-2-one in 3 guinea pigs was determined by open epicutaneous test for the compound.
For test [22], the species on record is Cavia porcellus. Briefly: Mean reaction by (-)4-Methyl-3-methylene-dihydro-furan-2-one sensitization in guinea pigs was determined by open epicutaneous test fo the compound.
The species named for test [23] is Cavia porcellus. The experiment in a line: Evaluated for the open epicutaneous test and no. of animals showing erythema covering the whole (1) by (-)4-Methyl-3-methylene-dihydro-furan-2-one sensitization in guinea pigs.
The species entered for test [24] is Cavia porcellus. Briefly: Evaluated for the open epicutaneous test and no. of animals showing no reaction (0) by (+)4-Methyl-3-methylene-dihydro-furan-2-one sensitization in guinea pigs.
The species entered for test [25] is Cavia porcellus. Briefly: Number of positive animals showing sensitization to (-)4-Methyl-3-methylene-dihydro-furan-2-one in 6 guinea pigs was determined by open epicutaneous test for the compound.
The species named for test [26] is Cavia porcellus. Briefly: Number of positive animals showing sensitization to (+)4-Methyl-3-methylene-dihydro-furan-2-one in 6 guinea pigs was determined by open epicutaneous test for the compound.

Consider `C=C1C(=O)O[C@@H](C)[C@@H]1C`, for which the No. of animals is listed as 3 in the test listed under Cavia porcellus [1]; 5 in the test filed under Cavia porcellus [3]; 0 in the test filed under Cavia porcellus [7]; 0 in the test listed under Cavia porcellus [8]; 0 in the test filed under Cavia porcellus [9]; 8 in the test listed under Cavia porcellus [10]. In addition, the No. of animals in the test filed under Cavia porcellus [11] and in the test listed under Cavia porcellus [12] was 0 throughout. Further, the “No. of positive animals” value in the test filed under Cavia porcellus [2] is listed as 0; in the test filed under Cavia porcellus [6], 8. Moreover, the Mean reaction in the test listed under Cavia porcellus [4] was 0; in the test listed under Cavia porcellus [5], 0.8.
`C=C1C(=O)O[C@H](C)[C@H]1C`: the No. of animals in the test filed under Cavia porcellus [1] is given as 2; in the test listed under Cavia porcellus [3], 3; in the test filed under Cavia porcellus [7], 5; in the test filed under Cavia porcellus [8], 0; in the test filed under Cavia porcellus [9] it was 1; in the test filed under Cavia porcellus [10], 2. Also, the No. of animals in the test listed under Cavia porcellus [11] is on record as 0; in the test listed under Cavia porcellus [12] it was 3. The “No. of positive animals” value in the test listed under Cavia porcellus [2] turned out to be 6; in the test filed under Cavia porcellus [6], 5. Moreover, the Mean reaction in the test listed under Cavia porcellus [4] came to 0.4; in the test filed under Cavia porcellus [5], 0.5.
With `C=C1C(=O)OC[C@@H]1C`, the results for the “No. of positive animals” value in the test filed under Cavia porcellus [13] and in the test listed under Cavia porcellus [21] were 7 and 3, respectively. Also, the No. of animals turned out to be 3 in the test filed under Cavia porcellus [14]; 0 in the test filed under Cavia porcellus [15]; 0 in the test listed under Cavia porcellus [16]; 0 in the test filed under Cavia porcellus [17]; 5 in the test filed under Cavia porcellus [18]; 0 in the test filed under Cavia porcellus [19]. The results for the No. of animals in the test filed under Cavia porcellus [23] and in the test filed under Cavia porcellus [24] were 2 and 4, respectively. Also, the Mean reaction was determined as 0.2 in the test listed under Cavia porcellus [20] and 1.7 in the test listed under Cavia porcellus [22].
Regarding `C=C1C(=O)OC[C@H]1C`, the No. of animals stood at 1 in the test listed under Cavia porcellus [14]; 0 in the test listed under Cavia porcellus [15]; 5 in the test listed under Cavia porcellus [16]; 0 in the test filed under Cavia porcellus [18]; 0 in the test filed under Cavia porcellus [19]; 0 in the test filed under Cavia porcellus [23]. Further, the No. of animals in the test listed under Cavia porcellus [24] came to 0; in the test filed under Cavia porcellus [12], 6. The Mean reaction in the test filed under Cavia porcellus [4] was 0.9; in the test filed under Cavia porcellus [22], 0. Further, the “No. of positive animals” value in the test filed under Cavia porcellus [25] is on record as 0; in the test listed under Cavia porcellus [26], 6.
